In patent US20250248979A1, “NOVEL GPX4 INHIBITORS AND USES THEREOF” (THE TRUSTEES OF COLUMBIA UNIVERSITY IN THE CITY OF NEW YORK, priority 2022, published 2025):

tested on: HT-1080 cells; assay: Cellular dose response assay, HT-1080 with and without Fer-1; assay type: cell-based, human; conditions: HT1080
From the text: HT-1080 (human [Homo sapiens] […] fibrosarcoma), A-673 (human [Homo sapiens] […] Ewing's sarcoma), and SK-HEP-1 (human [Homo sapiens] […] hepatic adenocarcinoma), cells were obtained from ATCC. Huh7 (human [Homo sapiens] […] hepatocellular carcinoma), HLF (human [Homo sapiens] […] hepatocellular carcinoma), HepG2 (human [Homo sapiens] […] hepatocellular carcinoma), cells were obtained from the Cancer Cell Bank at Columbia University Irving Medical Center. HT-1080, A-673, Huh-7, and HLF cells were grown in Dulbecco's Modified Eagle Medium (DMEM) supplemented with 10% heat inactivated fetal bovine serum (HI-FBS), 1% non-essential amino acids, and 1% penicillin streptomycin. HepG2 and SK-HEP-1 cells were grown in Eagle's Minimum Essential Medium (EMEM) supplemented with 10% HI-FBS, and 1% penicillin-streptomycin. All cells were cultured at 37° C. and 5% CO2.
HT-1080, HepG2, Huh7, HLF, and SK-HEP-1 cells were seeded into opaque white 384-well plates at 1500 cells per well then incubated at 37° C. with 5% CO2 overnight. The next day, compounds of interest were dissolved in DMSO and 12-point 2-fold dilution series were prepared with and without Fer-1. Cells were treated in triplicate (final DMSO concentration of 0.4% in all wells, including DMSO-only control wells) and incubated for a further 48 hours at 37° C. and 5% CO2. Cell viability was evaluated using CellTiter-Glo (Promega G7573) and luminescence was recorded on a Victor 5 plate reader. Data were analyzed in GraphPad Prism 9 and error bars represent standard deviation values for three technical replicates in a representative experiment.

Row | Structure (SMILES) | fold reduced activity relative to QW-852 [fold]
1 | CC(C)(COC(=O)CCl)NC(=O)c1c2ccc(-c3ccc(N4CCOCC4)c(Cl)c3)cc2nn1Cc1cc(Cl)cc(Cl)c1 [QW-937] | 25

same assay, conditions: HT-1080

Row | Structure (SMILES) | ferroptosis selectivity
2 | CC(C)(COC(=O)CCl)NC(=O)c1c2ccc(-c3ccc(N4CCOCC4)c(Cl)c3)cc2nn1Cc1ccc(Cl)nc1 [QW-904] | 3.8

same assay, conditions: ferroptosis selectivity, IC50 with Fer-1 / IC50

Row | Structure (SMILES) | Selectivity
3 | COc1ccc(-c2ccc3c(C(=O)NC(C)(C)C(C)(C)OC(=O)CCl)nn(Cc4cc(Cl)cc(Cl)c4)c3c2)cc1Cl [QW-886] | 4.5
4 | CC(C)(NC(=O)c1nn(Cc2cc(Cl)cc(Cl)c2)c2cc(-c3ccc(N4CCOCC4)c(Cl)c3)ccc12)C(C)(C)OC(=O)CCl [QW-887] | >174
5 | COc1ccc(-c2ccc3c(C(=O)NC(C)(C)COC(=O)CCl)nn(Cc4cccc(C(C)=O)c4)c3c2)cc1Cl [QW-892] | 1.6
6 | COc1ccc(-c2ccc3c(C(=O)NC(C)(C)COC(=O)CCl)nn(Cc4ccc(Cl)nc4)c3c2)cc1Cl [QW-897] | 7.5
7 | CC(C)(COC(=O)CCl)NC(=O)c1nn(Cc2ccc(Cl)nc2)c2cc(-c3ccc(N4CCOCC4)c(Cl)c3)ccc12 [QW-898] | 6.8
8 | CC(C)(COC(=O)CCl)NC(=O)c1c2ccc(-c3ccc(N4CCOCC4)c(Cl)c3)cc2nn1Cc1ccc(Cl)nc1 [QW-904] | 3.8
9 | CC(=O)c1cccc(Cn2nc3cc(-c4ccc(N5CCOCC5)c(Cl)c4)ccc3c2C(=O)NC(C)(C)COC(=O)CCl)c1 [QW-911] | 3.8
10 | CC(C)(COC(=O)CCl)NC(=O)c1c2ccc(Br)cc2nn1Cc1ccc(-c2ccc(N3CCOCC3)c(Cl)c2)cc1 [QW-912] | 3.4
11 | COc1ccc(-c2ccc3c(C(=O)NC(C)(C)CNC(=O)CCl)nn(Cc4cc(Cl)cc(Cl)c4)c3c2)cc1Cl [QW-927] | 5.1
12 | CC(C)(CNC(=O)CCl)NC(=O)c1nn(Cc2cc(Cl)cc(Cl)c2)c2cc(-c3ccc(N4CCOCC4)c(Cl)c3)ccc12 [QW-929] | 2.9
13 | COc1ccc(-c2ccc3c(C(=O)NC(C)(C)COC(=O)CCl)nn(Cc4cc(C(F)(F)F)cc(C(F)(F)F)c4)c3c2)cc1Cl [QW-930] | 0.6
14 | CC(C)(COC(=O)CCl)NC(=O)c1nn(Cc2cc(C(F)(F)F)cc(C(F)(F)F)c2)c2cc(-c3ccc(N4CCOCC4)c(Cl)c3)ccc12 [QW-931] | 6.6
15 | CC(C)(COC(=O)CCl)NC(=O)c1c2ccc(-c3ccc(N4CCOCC4)c(Cl)c3)cc2nn1Cc1cc(Cl)cc(Cl)c1 [QW-937] | 2.7
16 | CC(C)(COC(=O)CCl)NC(=O)c1c2ccc(-c3ccc(N4CCOCC4)c(Cl)c3)cc2nn1Cc1cc(C(F)(F)F)cc(C(F)(F)F)c1 [QW-945] | 4.0
17 | COc1ccc(-c2ccc3c(C(=O)NC(C)(C)COC(=O)CCl)nn(Cc4cc(Cl)ccc4Cl)c3c2)cc1Cl [QW-946] | 133.4
18 | CC(C)(COC(=O)CCl)NC(=O)c1nn(Cc2cc(Cl)cc(Cl)c2)c2cc(Br)ccc12 [QW-954] | 2.0
19 | COc1ccc(-c2ccc3c(C(=O)NC(C)(C)COC(=O)CCl)nn(Cc4cccc(Cl)c4Cl)c3c2)cc1Cl [QW-958] | 13.7
20 | CC(C)(COC(=O)CCl)NC(=O)c1nn(Cc2cccc(Cl)c2Cl)c2cc(-c3ccc(N4CCOCC4)c(Cl)c3)ccc12 [QW-959] | 508.5

same assay, conditions: read-out: IC50 HT1080

Row | IC50 [µM] | Structure (SMILES)
21 | 1 | CC(C)(COC(=O)CCl)NC(=O)c1c2ccc(-c3ccc(N4CCOCC4)c(Cl)c3)cc2nn1Cc1cc(Cl)cc(Cl)c1 [QW-937]

same assay, conditions: with Fer-1; Table 10; read-out: IC50 (μM) HT1080 + Fer-1

Row | Structure (SMILES) | IC50 [µM]
22 | COc1ccc(-c2ccc3c(C(=O)NC(C)(C)C(C)(C)OC(=O)CCl)nn(Cc4cc(Cl)cc(Cl)c4)c3c2)cc1Cl [QW-886] | 55.3
23 | CC(C)(NC(=O)c1nn(Cc2cc(Cl)cc(Cl)c2)c2cc(-c3ccc(N4CCOCC4)c(Cl)c3)ccc12)C(C)(C)OC(=O)CCl [QW-887] | > 40
24 | COc1ccc(-c2ccc3c(C(=O)NC(C)(C)COC(=O)CCl)nn(Cc4cccc(C(C)=O)c4)c3c2)cc1Cl [QW-892] | 37.7
25 | COc1ccc(-c2ccc3c(C(=O)NC(C)(C)COC(=O)CCl)nn(Cc4ccc(Cl)nc4)c3c2)cc1Cl [QW-897] | 9
26 | CC(C)(COC(=O)CCl)NC(=O)c1nn(Cc2ccc(Cl)nc2)c2cc(-c3ccc(N4CCOCC4)c(Cl)c3)ccc12 [QW-898] | 8.1
27 | CC(C)(COC(=O)CCl)NC(=O)c1c2ccc(-c3ccc(N4CCOCC4)c(Cl)c3)cc2nn1Cc1ccc(Cl)nc1 [QW-904] | 2.8
28 | CC(=O)c1cccc(Cn2nc3cc(-c4ccc(N5CCOCC5)c(Cl)c4)ccc3c2C(=O)NC(C)(C)COC(=O)CCl)c1 [QW-911] | 5
29 | CC(C)(COC(=O)CCl)NC(=O)c1c2ccc(Br)cc2nn1Cc1ccc(-c2ccc(N3CCOCC3)c(Cl)c2)cc1 [QW-912] | 5.1
30 | COc1ccc(-c2ccc3c(C(=O)NC(C)(C)CNC(=O)CCl)nn(Cc4cc(Cl)cc(Cl)c4)c3c2)cc1Cl [QW-927] | 8.2
31 | CC(C)(CNC(=O)CCl)NC(=O)c1nn(Cc2cc(Cl)cc(Cl)c2)c2cc(-c3ccc(N4CCOCC4)c(Cl)c3)ccc12 [QW-929] | 4.6
32 | COc1ccc(-c2ccc3c(C(=O)NC(C)(C)COC(=O)CCl)nn(Cc4cc(C(F)(F)F)cc(C(F)(F)F)c4)c3c2)cc1Cl [QW-930] | 13
33 | CC(C)(COC(=O)CCl)NC(=O)c1nn(Cc2cc(C(F)(F)F)cc(C(F)(F)F)c2)c2cc(-c3ccc(N4CCOCC4)c(Cl)c3)ccc12 [QW-931] | 34.3
34 | CC(C)(COC(=O)CCl)NC(=O)c1c2ccc(-c3ccc(N4CCOCC4)c(Cl)c3)cc2nn1Cc1cc(Cl)cc(Cl)c1 [QW-937] | 2.7
35 | CC(C)(COC(=O)CCl)NC(=O)c1c2ccc(-c3ccc(N4CCOCC4)c(Cl)c3)cc2nn1Cc1cc(C(F)(F)F)cc(C(F)(F)F)c1 [QW-945] | 10.7
36 | COc1ccc(-c2ccc3c(C(=O)NC(C)(C)COC(=O)CCl)nn(Cc4cc(Cl)ccc4Cl)c3c2)cc1Cl [QW-946] | 454
37 | CC(C)(COC(=O)CCl)NC(=O)c1nn(Cc2cc(Cl)cc(Cl)c2)c2cc(Br)ccc12 [QW-954] | 11.8
38 | COc1ccc(-c2ccc3c(C(=O)NC(C)(C)COC(=O)CCl)nn(Cc4cccc(Cl)c4Cl)c3c2)cc1Cl [QW-958] | 31.6
39 | CC(C)(COC(=O)CCl)NC(=O)c1nn(Cc2cccc(Cl)c2Cl)c2cc(-c3ccc(N4CCOCC4)c(Cl)c3)ccc12 [QW-959] | 610

same assay, conditions: without Fer-1; Table 10; read-out: IC50 (μM) HT1080

Row | Structure (SMILES) | IC50 [µM]
40 | COc1ccc(-c2ccc3c(C(=O)NC(C)(C)C(C)(C)OC(=O)CCl)nn(Cc4cc(Cl)cc(Cl)c4)c3c2)cc1Cl [QW-886] | 12.4
41 | COc1ccc(-c2ccc3c(C(=O)NC(C)(C)COC(=O)CCl)nn(Cc4cccc(C(C)=O)c4)c3c2)cc1Cl [QW-892] | 23.7
42 | COc1ccc(-c2ccc3c(C(=O)NC(C)(C)COC(=O)CCl)nn(Cc4ccc(Cl)nc4)c3c2)cc1Cl [QW-897] | 1.2
43 | CC(C)(COC(=O)CCl)NC(=O)c1nn(Cc2ccc(Cl)nc2)c2cc(-c3ccc(N4CCOCC4)c(Cl)c3)ccc12 [QW-898] | 1.2
44 | CC(C)(COC(=O)CCl)NC(=O)c1c2ccc(-c3ccc(N4CCOCC4)c(Cl)c3)cc2nn1Cc1ccc(Cl)nc1 [QW-904] | 0.74
45 | CC(=O)c1cccc(Cn2nc3cc(-c4ccc(N5CCOCC5)c(Cl)c4)ccc3c2C(=O)NC(C)(C)COC(=O)CCl)c1 [QW-911] | 1.3
46 | CC(C)(COC(=O)CCl)NC(=O)c1c2ccc(Br)cc2nn1Cc1ccc(-c2ccc(N3CCOCC3)c(Cl)c2)cc1 [QW-912] | 1.5
47 | COc1ccc(-c2ccc3c(C(=O)NC(C)(C)CNC(=O)CCl)nn(Cc4cc(Cl)cc(Cl)c4)c3c2)cc1Cl [QW-927] | 1.6
48 | CC(C)(CNC(=O)CCl)NC(=O)c1nn(Cc2cc(Cl)cc(Cl)c2)c2cc(-c3ccc(N4CCOCC4)c(Cl)c3)ccc12 [QW-929] | 1.6
49 | COc1ccc(-c2ccc3c(C(=O)NC(C)(C)COC(=O)CCl)nn(Cc4cc(C(F)(F)F)cc(C(F)(F)F)c4)c3c2)cc1Cl [QW-930] | 21.8
50 | CC(C)(COC(=O)CCl)NC(=O)c1nn(Cc2cc(C(F)(F)F)cc(C(F)(F)F)c2)c2cc(-c3ccc(N4CCOCC4)c(Cl)c3)ccc12 [QW-931] | 5.2
51 | CC(C)(COC(=O)CCl)NC(=O)c1c2ccc(-c3ccc(N4CCOCC4)c(Cl)c3)cc2nn1Cc1cc(C(F)(F)F)cc(C(F)(F)F)c1 [QW-945] | 2.7
52 | COc1ccc(-c2ccc3c(C(=O)NC(C)(C)COC(=O)CCl)nn(Cc4cc(Cl)ccc4Cl)c3c2)cc1Cl [QW-946] | 3.4
53 | CC(C)(COC(=O)CCl)NC(=O)c1nn(Cc2cc(Cl)cc(Cl)c2)c2cc(Br)ccc12 [QW-954] | 5.9
54 | COc1ccc(-c2ccc3c(C(=O)NC(C)(C)COC(=O)CCl)nn(Cc4cccc(Cl)c4Cl)c3c2)cc1Cl [QW-958] | 2.3
55 | CC(C)(COC(=O)CCl)NC(=O)c1nn(Cc2cccc(Cl)c2Cl)c2cc(-c3ccc(N4CCOCC4)c(Cl)c3)ccc12 [QW-959] | 1.2

same assay, conditions: without Fer-1; Table 10; read-out: IC50 HT1080

Row | Structure (SMILES) | IC50 [µM]
56 | CC(C)(NC(=O)c1nn(Cc2cc(Cl)cc(Cl)c2)c2cc(-c3ccc(N4CCOCC4)c(Cl)c3)ccc12)C(C)(C)OC(=O)CCl [QW-887] | 0.233
